Read-outs that look alike come from different tables or passages of the source.
How the values were obtained:
Sarcoma 180 tumors = details: given orally; cited from earlier work
[1] = Plasma 13-HODE levels in rabbits after oral 13-HODE; type: in vivo, New Zealand white rabbits
Procedure: (§1) New Zealand white rabbits (half males/half females; 2.5-2.9 kg) were used throughout. Rabbits were treated with 100, 400 or 1000 μg/kg/day of purified 13-HODE suspended in corn oil or ethyl-eicosapentaenoic acid (EPA), or with an equivolume of either suspending vehicle (total volume 1 ml) for 7 days. Serial blood samples were collected before, during and after treatment to assess the levels of 13-HODE in plasma. On day 7, the treatments were stopped. At that time, the rabbits were anaesthetised with a combination of Atravet, Ketamine, Vetrepham and glycopyrolate, given subcutaneously. Both carotid arteries of anaesthetised rabbits were isolated between 2 temporary ligatures, first by applying the proximal ligature, then allowing the blood to drain from the segment, and then applying the distal ligature. A 24-gauge angiocath attached to tubing filled with sterile saline and connected to a pressure manometer, was inserted into the isolated segment. Then the segment was filled with the saline to a pressure of 600 mm Hg which was maintained for 5 minutes. The pressure was relieved, and the angiocath and ligatures were removed, thereby allowing for blood flow restoration. Cessation of bleeding from the needle puncture site was achieved within 3 minutes without any manual manipulation. The incisions were sutured closed with 000 proline. The rabbits were injected intramuscularly with Temgesic to minimize any pain and with 12.5 mg Baytril as an antibiotic, and then allowed to recover. This injury procedure results in endothelial denudation and the exposure of a thrombogenic surface within 1 hour of restoration of blood flow, followed by SMC proliferation and intimal hyperplasia, which plateaus at 4 weeks and which is sustained for ±12 weeks (Buchanan MR, Brister SJ: 1998; Buchanan MR et al. 1999).
(§2) Two, four or twelve weeks later, the rabbits were re-anaesthetised and their injured carotid arteries were again isolated. Segments of injured and uninjured carotid artery were harvested and processed histologically to assess VW hyperplasia. Other VW segments and blood samples were collected and processed for VW and plasma 13-HODE levels.

[2] = tested on: VW intimal hyperplasia of injured carotid arteries; assay: Intimal hyperplasia after carotid artery pressure injury in rabbits; type: in vivo, New Zealand white rabbits; details: for intimal hyperplasia: 1,000 μg/kg/day for 7 days
Procedure: as §1, §2

[3] = Stability of 13-HODE in dosage forms (oil or ester carrier); type: physicochemical; details: dissolved in a triglyceride oil carrier or an ester
Procedure: A real problem is presented by the fact that active daily doses of 13-HODE are in the 50 to 1,000 μg/kg/day range. […] That translates into a […] dose for a 70 kg person. Since doses for humans are often considerably lower than doses for animals because of a weight/body surface area scaling, a daily dose of as little as 5 mg or less is really possible. Formulating an oily liquid is such small doses is a problem. It could be absorbed into tabletting materials and tabletted and coated, or micro-encapsulated by methods well known to those skilled in the art. […] Other triglyceride oils such as vegetable oil, including sunflower, safflower, soy, evening primrose, borage, coconut or palm oil, or cottonseed, rapeseed, olive, fish body or fish liver oils may all be used for this purpose. Particualrly useful esters for this purpose are esters of fatty acids with 16-26 carbon atoms and one or more double bonds in the chain.

[4] = Observation of hemorrhagic defect in the experimental animals; type: in vivo, rabbits; details: any of the experimental animals
Procedure: as §1, with “The rabbits were injected intramuscularly with Temgesic to minimize any pain and with 12.5 mg Baytril as an antibiotic, and then allowed to recover. This injury procedure results in endothelial denudation and the exposure of a thrombogenic surface within 1 hour of restoration of blood flow, followed by SMC proliferation and intimal hyperplasia, which plateaus at 4 weeks and which is sustained for ±12 weeks (Buchanan MR, Brister SJ: 1998; Buchanan MR et al. 1999).” left out

[5] = Vessel wall 13-HODE levels in rabbits after oral 13-HODE; type: in vivo, New Zealand white rabbits
Procedure: as §1, with “The rabbits were injected intramuscularly with Temgesic to minimize any pain and with 12.5 mg Baytril as an antibiotic, and then allowed to recover. This injury procedure results in endothelial denudation and the exposure of a thrombogenic surface within 1 hour of restoration of blood flow, followed by SMC proliferation and intimal hyperplasia, which plateaus at 4 weeks and which is sustained for ±12 weeks (Buchanan MR, Brister SJ: 1998; Buchanan MR et al. 1999).” left out

[6] = human, in vivo; cited from earlier work
[7] = dose comparable to that used clinically; cited from earlier work
intimal SMC hyperplasia = details: cited from earlier work
[8] = tested on: Platelet/injured VW interactions; details: dose comparable to that used clinically; cited from earlier work
[9] = 3.2 gm daily (20 capsules) for 30 days; cited from earlier work
[10] = tested on: Platelet/injured VW interactions; details: 3.2 gm daily for 30 days; cited from earlier work
[11] = suspended in ethyl-EPA, all treatment levels

SMILES: CCCCC/C=C\C=C\C(O)CCCCCCCC(=O)O (stereo not shown) [9-HODE, 9-hydroxy-10(E)12(Z) octadecadienoic acid]
- minimum effective dose for inhibition of tumour growth rate (Sarcoma 180 tumors): 55 mg/kg/day

SMILES: CCCCCC(O)/C=C/C=C\CCCCCCCC(=O)O (stereo not shown) [13-HODE, 13-hydroxyoctadeca-9Z, 11E-dienoic acid]
- increase in the plasma 13-HODE levels ([1]; 100 μg/kg/day oral, 7 days, suspended in corn oil): three-fold
- time to significantly elevated 13-HODE level in cell-free plasma ([1]; 1,000 μg/kg/day oral): ≤ 3 days
- effect of increasing the dose on plasma 13-HODE levels ([1]; 1,000 μg/kg/day vs 100 μg/kg/day, corn oil): no further effect
- time 13-HODE level in cell-free plasma remained elevated ([1]; 1,000 μg/kg/day, treatment stopped after 7 days): 4 weeks
- time for plasma 13-HODE levels to return to almost control levels ([1]; after 7 day oral treatment, corn oil): 14 to 21 days
- absolute levels of plasma 13-HODE versus corn oil vehicle [1, 11]: lower
- intimal VW hyperplasia ([2]; 100 μg/kg/day for 7 days, in corn oil or ethyl-EPA, p<0.001): significantly inhibited
- intimal hyperplasia ([2]; 2 weeks after injury, placebo 18%): 8%
- intimal hyperplasia ([2]; 4 weeks after injury, placebo 38%): 16%
- intimal hyperplasia ([2]; 12 weeks after injury): > 3%
- stability of dosage form [3]: stable without degradation
- hemorrhagic defect [4]: no detectable hemorrhagic defect
- VW 13-HODE levels ([5]; suspended in corn oil, measured 28 days after stopping the treatment): dose-related increase
- absolute levels of VW 13-HODE versus corn oil vehicle [5, 11]: somewhat lower

SMILES: CC(=O)Oc1ccccc1C(=O)O [ASA]
- overall risk reduction (stroke, myocardial infarction, transient ischemic attacks) [6]: 25%

SMILES: OCCN(CCO)c1nc(N2CCCCC2)c2nc(N(CCO)CCO)nc(N3CCCCC3)c2n1 [Persantine, dipyridamole]
- increase of VW 13-HODE [7]: 30 to 50%
- SMC hyperplasia (intimal SMC hyperplasia; 1 mg/kg/day for 7 days before injury, 4 weeks after VW injury): inhibited
- platelet function (intimal SMC hyperplasia; 1 mg/kg/day for 7 days): unchanged
- decrease of platelet/injured VW interactions [8]: > 2 fold

SMILES: CCCCC/C=C\C/C=C\CCCCCCCC(=O)O [linoleic acid, Octa-deca-9Z, 12Z-dienoic acid]
- increase of VW 13-HODE levels [9]: 2 fold
- decrease of platelet/injured VW interactions [10]: > 2 fold
